From ChEMBL document CHEMBL1125020 (J Med Chem, 1990) come the findings set out here.

The structures appear in SMILES notation.

A short description of assay [1]: Inhibition of Adenylate Cyclase in Rat adipocytes. In kind it is cell-based.
The next assay deals with T1, Adenosine receptor A1 (Rattus norvegicus, UniProt P25099).
T1 sequence (P25099 whole entry): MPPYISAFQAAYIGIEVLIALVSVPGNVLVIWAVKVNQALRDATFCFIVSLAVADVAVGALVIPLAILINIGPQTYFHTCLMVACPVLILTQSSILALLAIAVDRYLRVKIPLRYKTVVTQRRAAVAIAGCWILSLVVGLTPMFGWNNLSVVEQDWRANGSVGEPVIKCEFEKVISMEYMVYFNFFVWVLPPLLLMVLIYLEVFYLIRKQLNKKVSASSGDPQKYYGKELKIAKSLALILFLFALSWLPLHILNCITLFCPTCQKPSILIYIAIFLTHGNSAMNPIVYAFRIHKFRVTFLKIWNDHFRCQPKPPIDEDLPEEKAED

In a further assay the target is Adenosine A2 receptor (Rattus norvegicus, UniProt P29276+P30543).

The IC50 is the concentration that gives 50% inhibition. Take `Cn1c(=O)c2nc(C3CC3)[nH]c2n(C)c1=O`: the IC50 in assay [1] came out at 0.042 µM. That is a double-digit nanomolar value.

`Cn1c(=O)c2nc(Cc3ccccc3)[nH]c2n(C)c1=O` registered an IC50 in assay [1] of 0.89 µM. Against the preceding compound, the IC50 is about 21-fold higher.

For orientation: Ki means a dissociation constant, usually derived from enzyme kinetics or from competition with a known ligand. In the case of `OC[C@H]1O[C@@H](n2cnc3c(NC4CC4)ncnc32)[C@H](O)[C@@H]1O`, at Adenosine receptor A1, the Ki is 0.0021 µM.

Compound `CCCn1c(=O)c2nc([C@H](C)Cc3ccccc3)[nH]c2n(CCC)c1=O` had a Ki at Adenosine A2 receptor of 0.157 µM.

On to `Cn1c(=O)c2nc(C3CCCCC3)[nH]c2n(C)c1=O`, for which the Ki at Adenosine A2 receptor worked out at 0.0047 µM. Besides, in assay [1], half-maximal inhibition (IC50) was put at 0.0025 µM.

Compound `CCCn1c(=O)c2nc(C(C)Cc3ccccc3)[nH]c2n(CCC)c1=O` (stereo not given) showed a Ki on Adenosine A2 receptor of 0.644 µM.

For the compound `CCCn1c(=O)c2nc([C@@H](C)Cc3ccccc3)[nH]c2n(CCC)c1=O`, the Ki on Adenosine A2 receptor is 0.848 µM. This Ki and that of the compound before are within 1.5-fold of each other.

For the compound `OC[C@H]1O[C@@H](n2cnc3c(NC4CCCCC4)ncnc32)[C@H](O)[C@@H]1O`, in assay [1], 0.027 µM corresponded to half-maximal inhibition (IC50).

`Cn1c(=O)c2nc(C3CCCC3)[nH]c2n(C)c1=O` [8-CYCLOPENTYLTHEOPHYLLINE] registered a Ki on Adenosine receptor A1 of 0.00046 µM. Further, the IC50 in assay [1] turned out to be 0.00047 µM.

For the compound `Cn1c(=O)c2nc(-c3ccccc3)[nH]c2n(C)c1=O` [8-PHENYL THEOPHYLLINE], the Ki on Adenosine A2 receptor is 0.0209 µM. This compound gave an IC50 in assay [1] of 0.037 µM.

As to `OC[C@H]1O[C@@H](n2cnc3c(NCc4ccccc4)ncnc32)[C@H](O)[C@@H]1O` [N6-BENZYLADENOSINE], the Ki on Adenosine A2 receptor came to 0.35 µM. In assay [1], this compound gave an IC50 of 2.2 µM.

At Adenosine A2 receptor, `OC[C@H]1O[C@@H](n2cnc3c(NC4CCCC4)ncnc32)[C@H](O)[C@@H]1O` [N6-CYCLOPENTYLADENOSINE] had a Ki of 0.0011 µM. The compound further displayed an IC50 in assay [1] of 0.0192 µM.

As for `OC[C@H]1O[C@@H](n2cnc3c(Nc4ccccc4)ncnc32)[C@H](O)[C@@H]1O` [N6-PHENYLADENOSINE], on Adenosine A2 receptor, the Ki was 0.11 µM. In assay [1], this compound returned an IC50 of 0.19 µM.

With `Cn1c(=O)c2nc[nH]c2n(C)c1=O` [THEOPHYLLINE], the IC50 in assay [1] worked out at 0.94 µM.
